According to patent US11858946B2, “Small molecules active against gram-negative bacteria” (The Board of Trustees of the University of Illinois, priority 2016, dated 2024):
Values after ≈ are worked out from the molar mass of the structure shown. Read-outs that look alike come from different tables or passages of the source.

Legend:
E. coli MG1655 [1] = experiment: Accumulation assay in whole-cell E. coli, LC-MS/MS quantification; settings: for accumulation in E. coli (in words): E. coli whole cells; for accumulation in E. coli (in words) / accumulation in E. coli: 50 μM compound, 10 minutes; for accumulation in E. coli: E. coli MG1655 whole cells, 37° C., LC-MS/MS; for accumulation upon co-treatment with colistin: E. coli, 6.0 μM colistin sulfate added before compound
Text: Antimicrob. Agents Chemother. 36, 2622-2627, (1992); Davis, T. D., Gerry, C. J. & Tan, D. S. General platform for systematic quantitative evaluation of small-molecule permeability in bacteria. ACS Chem. Biol. 9, 2535-2544, (2014); and Cai, H., Rose, K., Liang, L. H., Dunham, S. & Stover, C. Development of a liquid chromatography/mass spectrometry-based drug accumulation assay in Pseudomonas aeruginosa. Anal. Biochem. 385, 321-325, (2009); with LC-MS/MS used to quantify the accumulation of each compound. E. coli MG1655 was utilized for these experiments as this strain has been only minimally altered from its K-12 progenitor. To ensure the assay was reporting on compound accumulation, as opposed to non-specific affinity for the outer membrane, several control experiments were conducted. The assay method was evaluated with antibiotics that have known high or low levels of accumulation, based on published accumulation data and antibacterial activity against E. coli. […] Colistin is known to potentiate the activity of low-accumulating antibiotics by aiding the diffusion of lipophilic compounds across the membrane.
For each replicate, 2.5 mL of an overnight culture of E. coli was diluted into 250 mL of fresh Luria Bertani (LB) broth (Lennox) and grown at 37° C. with shaking to an OD600=0.55. The bacteria were pelleted at 3,220 rcf for 10 minutes at 4° C. and the supernatant was discarded. The pellets were re-suspended in 40 mL of phosphate buffered saline (PBS) and pelleted as before, and the supernatant was discarded. The pellets were re-suspended in 8.8 mL of fresh PBS and aliquoted into ten 1.5 mL eppendorf tubes (875 μL each). The number of colony forming units (CFUs) was determined via a calibration curve. The samples were equilibrated at 37° C. with shaking for 5 minutes, compound was added ([final]=50 μM), and then samples were incubated at 37° C. with shaking for 10 minutes. […] After incubation, 800 μL of the cultures were carefully layered on 700 μL of silicone oil (9:1 AR20/Sigma High Temperature, cooled to −78° C.). Bacteria were pelleted through the oil by centrifuging at 13,000 rcf for 2 minutes at room temperature (supernatant remains above the oil); the supernatant and oil were then removed by pipetting. To lyse the samples, each pellet was dissolved in 200 μL of water, and then they were subjected to three freeze-thaw cycle of three minutes in liquid nitrogen followed by three minutes in a water bath at 65° C. The lysates were pelleted at 13,000 rcf for 2 minutes at room temperature and the supernatant was collected (180 μL). The debris was re-suspended in 100 μL of methanol and pelleted as before. The supernatants were removed and combined with the previous supernatants collected. Finally, remaining debris was removed by centrifuging at 20,000 rcf for 10 minutes at room temperature. Supernatants were analyzed by LC-MS/MS.
Samples were analyzed with the 5500 QTRAP LC/MS/MS system (AB Sciex, Foster City, CA) with a 1200 series HPLC system (Agilent Technologies, Santa Clara, CA) including a degasser, an autosampler, and a binary pump. The LC separation was performed on an Agilent SB-Aq column (4.6×50 mm, 5 μm) (Agilent Technologies, Santa Clara, CA) with mobile phase A (0.1% formic acid in water) and mobile phase B (0.1% formic acid in acetonitrile). The flow rate was 0.3 mL/min. The linear gradient was as follows: 0-3 min, 100% A; 10-15 min, 2% A; 15.5-21 min, 100% A. The autosampler was set at 5° C. The injection volume was 15 μL. Mass spectra were acquired with both positive electrospray ionization (ESI) at the ion spray voltage of 5500 V and negative ESI at the ion spray voltage of −4500 V. The source temperature was 450° C. The curtain gas, ion source gas 1, and ion source gas 2 were 33, 50, and 65, respectively.

E. coli MG1655 [2] = experiment: Antibiotic susceptibility test (microdilution broth), E. coli MG1655; format: cell-based, Escherichia coli; settings: for MIC: Escherichia coli
Description: (§1) 6DNM and its derivatives were further evaluated against an expanded panel of Gram-negative pathogens, laboratory strains and clinical isolates of ESKAPE pathogens E. coli, Acinetobacter baumannii, Klebsiella pneumoniae, Enterobacter cloacae, and Pseudomonas aeruginosa (Table 1 of FIG. 19).
(§2) Susceptibility testing was performed in triplicate, using the microdilution broth method as outlined by the Clinical and Laboratory Standards Institute. Mueller Hinton (MH) broth was used.

Staphylococcus aureus = experiment: Antibiotic susceptibility test (microdilution broth), S. aureus; format: cell-based
[3] = system: E. coli, Acinetobacter baumannii, Klebsiella pneumoniae, Enterobacter cloacae, and Pseudomonas aeruginosa; experiment: Antibiotic susceptibility test (microdilution broth), expanded panel of Gram-negative pathogens; format: cell-based; settings: for activity against expanded panel of Gram-negative pathogens (in words): laboratory strains and clinical isolates of ESKAPE pathogens
Description: as §1, §2

E. coli (ATCC BAA-2469) = experiment: Antibiotic susceptibility test (microdilution broth), NDM-1 producing E. coli clinical isolate; format: cell-based; settings: Escherichia coli, ATCCBAA2469, read-out: MIC against multi-drug resistant NDM-1 producing E. coli ATCC BAA-2469
Description: as §1, §2

[4] = system: ΔompR strain of E. coli (OmpF and OmpC knockout) vs parental E. coli BW25113
Description: A ΔompR strain of E. coli from the KEIO knockout collection was therefore chosen to effectively knockout both OmpF and OmpC (knockout was validated by analyzing the outer membrane proteins of the ΔompR strain compared to the parental strain, data not shown).

Cc1cc(=O)n(C)c2c3c4c(cc12)c(C)cc(=O)n4C(CC(=O)O)CO3 (centres unmarked) [Compound 6DNM-acid] was tested, and the “accumulation in E. coli (in words)” value (E. coli MG1655 [1]) was “do not accumulate” and the “activity against E. coli (in words)” value (E. coli MG1655 [2]) was “no activity”.
NC1COC2C(O)COC12 (centres unmarked) [Compound 20, mono-amine isomannide] was tested, and the “accumulation in E. coli (in words)” value (E. coli MG1655 [1]) was “does not accumulate”.
For CC(=O)NCC1COc2c3c(cc4c(C)cc(=O)n1c24)c(C)cc(=O)n3C (centres unmarked) [Compound 6DNM-amide], the “accumulation in E. coli (in words)” value (E. coli MG1655 [1]) was “do not accumulate” and the “activity against E. coli (in words)” value (E. coli MG1655 [2]) was “no activity”.
In the case of Cc1cc(=O)n(C)c2c3c4c(cc12)c(C)cc(=O)n4CCO3 [Compound 6DNM], the “accumulation in E. coli” value (E. coli MG1655 [1]) is reported as 298 nmol/10^12 CFUs, the MIC (Staphylococcus aureus; Staphylococcus aureus, microdilution broth, MH broth, read-out: MIC against Staphylococcus aureus) is reported as 0.06 to 1 mg/L (≈ 0.202 to 3.37 µM) and the MIC (E. coli MG1655 [2]; MG1655, read-out: MIC versus E. coli) is reported as > 32 mg/L. For the same compound, the “activity against expanded panel of Gram-negative pathogens (in words)” value [3] was “no notable activity”.
Cc1cc(=O)n(C)c2c3c4c(cc12)c(C)cc(=O)n4C(CN)CO3 (centres unmarked) [Compound 6DNM-NH3] was tested, and the “accumulation in E. coli” value (E. coli MG1655 [1]) was 1114 nmol/10^12 CFUs, the “activity against S. aureus (in words)” value (Staphylococcus aureus) was “retains activity” and the MIC (E. coli MG1655 [2]; MG1655, microdilution broth, MH broth, read-out: MIC against E. coli MG1655) was 0.5 mg/L (≈ 1.54 µM). For the same compound, the MIC (E. coli (ATCC BAA-2469)) was 4 mg/L (≈ 12.3 µM), the “activity against other clinical isolates of E. coli, A. baumannii, K. pneumonia, and E. cloacae (in words)” value ([3]; clinical isolates) was “good activity against most of the other clinical isolates” and the “activity against expanded panel of Gram-negative pathogens (in words)” value [3] was “antibacterial activity against all of these Gram-negative pathogens except P. aeruginosa”. For the same compound, the “accumulation in ΔompR strain compared to parental/WT strain” value [4] was “decrease in accumulation”.
For O=C(O)c1cn(C2CC2)c2cc(N3CCNCC3)c(F)cc2c1=O [ciprofloxacin, reference compound], the “reduction of CFUs during accumulation assay (factor)” value (E. coli MG1655 [1]; treatment for 10 minutes, 50 μM) was “five” and the “accumulation in ΔompR strain compared to parental/WT strain” value [4] was “significant decrease in accumulation”.
CO[C@H]1/C=C/O[C@@]2(C)Oc3c(C)c(O)c4c(O)c(c(/C=N/N5CCN(C)CC5)c(O)c4c3C2=O)NC(=O)/C(C)=C\C=C\[C@H](C)[C@H](O)[C@@H](C)[C@@H](O)[C@@H](C)[C@H](OC(C)=O)[C@@H]1C [rifampicin, reference compound] was tested, and the “accumulation upon co-treatment with colistin” value (E. coli MG1655 [1]) was “increase in accumulation”.
For CO[C@@H]1[C@@H](OC(N)=O)[C@@H](O)[C@H](Oc2ccc3c(O)c(NC(=O)c4ccc(O)c(CC=C(C)C)c4)c(=O)oc3c2C)OC1(C)C [novobiocin, reference compound], the “accumulation upon co-treatment with colistin” value (E. coli MG1655 [1]) was “increase in accumulation”.
